# Columns and labels:
# Assay type in all cases: in vivo, BALB/c mice
# OVA-sensitized mice [1] = test: Airway hyperresponsiveness (Penh, methacholine challenge, whole-body plethysmograph); settings: Mch challenge 12.5 mg/ml or higher; after 13 days feeding; FIG. 2
# Method: Inbred female BALB/c mice (4 weeks old) were purchased from the Laboratory Animal Center, National Taiwan University and housed in a room with constant temperature of 23±2° C. The animal room was kept on a 12-h light and 12-h dark cycle. The mice were housed and kept on free diet and water to acclimatize before feeding the experimental diet. Diet ingestions are recorded every 3˜4 days, and mice body weight were recorded every week. When mice were in 8 week old, the mice were sensitized and challenged to induce allergic reaction at week 8, 10 and 12 by an intraperitonal injection (i.p.) of antigen containing ovalbumin antigen and adjuvant (Imject® Alum). […] Change of mice airway resistance was measured after 13 days of feeding, and mice were sacrificed on day 16. […]
# After an inhaled antigen challenge, airway resistance of the mice were tested the following day using Buxco system (Biosystem XA, Buxco Electronics Inc. Sharon, Conn., USA), in which the differential pressure transducer (Buxco) and preamplifier (MAX II, Buxco) were used to collect change information of mice respiratory and to calculate lung Penh value (Penh, enhanced pause). […] After excess aerosol was evacuated, an average Penh value per minute was recorded. […] The same challenge process was performed at each concentration, and an average Penh value per minute was recorded after 3 mins after each challenge. […]
# [2] = tested on: splenocytes of OVA-sensitized mice; test: Cytokine secretion by OVA-specific stimulated splenocytes ex vivo; settings: mean ± SD
# Method: (§1) Inbred female BALB/c mice (4 weeks old) were purchased from the Laboratory Animal Center, National Taiwan University and housed in a room with constant temperature of 23±2° C. The animal room was kept on a 12-h light and 12-h dark cycle. The mice were housed and kept on free diet and water to acclimatize before feeding the experimental diet. Diet ingestions are recorded every 3˜4 days, and mice body weight were recorded every week. When mice were in 8 week old, the mice were sensitized and challenged to induce allergic reaction at week 8, 10 and 12 by an intraperitonal injection (i.p.) of antigen containing ovalbumin antigen and adjuvant (Imject® Alum). Blood samples were collected on two days before injection and on two weeks after last injection for analysis of OVA-specific antibodies. Mice were divided in five groups based on OVA-specific IgE antibody and body weight, namely OVA-oil group (the control group), OVA-BGP group (feed containing 5% of freeze dried bitter melon powder), OVA-CLN group (tube feeding containing 35 mg CLN), OVA-Pred (prednisolone, the positive control group), and PBS-oil (the non-sensitized group), respectively. Mice diet was based on AIN-76 formulation (feed composition referred to J. Nutri. 107: 1340-1384, 1977). Administration of steroid prednisolone by tube feeding started 4 days before AHR induction and last to the day sacrificed. After 4 days of feeding, mice were challenged with 5% aerosol of OVA solution, while the PBS-oil group was administered with aerosol PBS. Change of mice airway resistance was measured after 13 days of feeding, and mice were sacrificed on day 16.
# Mice were sacrificed and their spleens were aseptically removed and suspended in 3 cm incubation dish containing 3 ml TCM/RPMI solution. Spleen tissue was minced with rear end of syringe and the upper layer cell suspension was collected and placed in 15 ml centrifuge tube. Another 3 ml HBSS buffer was added to wash the dish and residual cells were collected. Cell suspensions were centrifuged at 1500 rpm for 10 mins Supernatant was discard and the precipitated cells were re-suspend in ACK lysing buffer. After 1 minute, HBSS buffer was added to the suspension and then centrifuged at 1500 rpm for 10 mins Cell pellet was washed with HBSS buffer for 3 times. 2 ml of TCM/RPMI medium was added to re-suspend the cells. Cell number was counted and adjusted to 1×10^7 cell/ml. 500 μl of the cell suspension was added to 48 well plates. […] After 48 hours incubation, supernatants were collected and stored at −80° C.
# BD Pharmingen System was provided as an example. Cytokine concentration was determined by ABC (avidin-biotin conjugated system) ELISA method. Primary antobiody was added to the 96-microwell plate wells and incubated at 4° C. overnight. After incubation, plates were washed four times with PBST buffer. To block non-specific binding, block buffer were added to each well and the plates were incubated at room temperature for 1 h. After incubation, plates were washed five times with ELISA wash buffer. Appropriately diluted samples or standard solution were then added to the 96-microwell plate wells and the plates were incubated at room temperature for 2˜3 h. After incubation, plates were washed with buffer six times then secondary antibody for detection was added to each well. Plates were incubated for another 1 h. After incubation, plates were washed seven times with ELISA wash buffer. […] The plates were measured the absorbance at 405 nm by ELISA reader.
# [3] = Organ weight and relative organ weight of OVA-sensitized mice
# Method: as §1
# After 16 days of feeding, the absolute weight of heart of OVA-BGP treated mice was less than the OVA-oil treated mice. […] There was no difference between the OVA-CLN group and control group. […] The absolute weight and relative weight of lung of PBS-oil mice group were lower than sensitized mice groups.
# OVA-sensitized mice [4] = test: Leukocyte numbers in BALF; settings: FIG. 3A-3B
# Method: Inbred female BALB/c mice (4 weeks old) were purchased from the Laboratory Animal Center, National Taiwan University and housed in a room with constant temperature of 23±2° C. The animal room was kept on a 12-h light and 12-h dark cycle. The mice were housed and kept on free diet and water to acclimatize before feeding the experimental diet. Diet ingestions are recorded every 3˜4 days, and mice body weight were recorded every week. When mice were in 8 week old, the mice were sensitized and challenged to induce allergic reaction at week 8, 10 and 12 by an intraperitonal injection (i.p.) of antigen containing ovalbumin antigen and adjuvant (Imject® Alum). Blood samples were collected on two days before injection and on two weeks after last injection for analysis of OVA-specific antibodies. […] Change of mice airway resistance was measured after 13 days of feeding, and mice were sacrificed on day 16.
# After mice were sacrificed, fur and skin in the mice neck were incised and muscle surrounding the trachea was tear open to expose the trachea. […] Total leukocytes were counted with a hemocytometer using trypan blue dye exclusion method. […] Two hundreds of leukocytes were counted on each slide, which includes four different cells, eosinophil, neutrophil, lymphocyte and monocyte.
# [5] = Growth and feed intake of OVA-sensitized mice
# Method: as §1
# BALB/c mice were sensitized every other week for three times. Two weeks before the last sensitization mice were divided into five groups according to OVA-specific IgE and body weight, then different experimental diet were provided for 16 days. […] In the aspect of daily ingestion, no difference was observed among these mice groups.
# OVA-sensitized mice [6] = test: Cytokine, eotaxin and PGE2 level in BALF (ELISA); settings: day 16; mean ± SD
# Method: as §1
# After mice were sacrificed, fur and skin in the mice neck were incised and muscle surrounding the trachea was tear open to expose the trachea. A small hole was made on the trachea near the head with scissors to intubate tracheal tubing. After intubation, their lungs and airways were lavaged with […] of sterile PBS. Two ml of bronchoalveolar lavage fluid (BALF) was centrifuged at 1500 rpm for 7 mins at 4° C. The supernatant (BALF) was collected and stored at −80° C. for cytokine concentration determination. The cell pellet was washed with HBSS buffer twice and re-suspended in 10% FBS/RPMI medium. Total leukocytes were counted with a hemocytometer using trypan blue dye exclusion method. After the cell concentration was adjusted to 5×10^5 cell/ml, aliquots of 100 μl total cells were centrifuged with cytospin at 500 rpm for 2 mins and then stained with Liu A for 30 seconds. After excess stain was washed off and air dried, the cells were stained with Liu B for 5 seconds. Slides were air-dried and sealed with Arabic gum. […] Two hundreds of leukocytes were counted on each slide, which includes four different cells, eosinophil, neutrophil, lymphocyte and monocyte.
# BD Pharmingen System was provided as an example. Cytokine concentration was determined by ABC (avidin-biotin conjugated system) ELISA method. Primary antobiody was added to the 96-microwell plate wells and incubated at 4° C. overnight. After incubation, plates were washed four times with PBST buffer. To block non-specific binding, block buffer were added to each well and the plates were incubated at room temperature for 1 h. After incubation, plates were washed five times with ELISA wash buffer. Appropriately diluted samples or standard solution were then added to the 96-microwell plate wells and the plates were incubated at room temperature for 2˜3 h. After incubation, plates were washed with buffer six times then secondary antibody for detection was added to each well. Plates were incubated for another 1 h. After incubation, plates were washed seven times with ELISA wash buffer. Streptavidin-HRP (horseradish peroxidase) was added to each well and the reaction was allowed to react for 30 mins. After reaction, the plates were washed with ELISA buffer eight times and then HRP-substrate solution was added to the 96-microwell plate wells. […]
# [7] = after 16 days feeding, mean ± SD
smiles,measurement,setting,value
"C[C@]12C=CC(=O)C=C1CC[C@@H]1[C@@H]2[C@@H](O)C[C@@]2(C)[C@H]1CC[C@]2(O)C(=O)CO [OVA-Pred, prednisolone]",Airway hyperresponsiveness (Penh) vs OVA-oil group,OVA-sensitized mice [1],alleviation of AHR
same,IFN-γ secretion by splenocytes,[2],110 ± 50 pg/mL
same,IL-2 secretion by splenocytes,[2],66.9 ± 20.9 pg/mL
same,IL-4 secretion by splenocytes,[2],33.4 ± 14.5 pg/mL
same,IL-5 secretion by splenocytes,[2],2.12 ± 1.85 ng/mL
same,IL-13 secretion by splenocytes,[2],322 ± 118 pg/mL
same,Relative weight of liver vs OVA-oil group,[3]; in words,significant lower
same,Total leukocyte number in BALF vs OVA-oil group,OVA-sensitized mice [4],less than those in the OVA-oil group
"CCCC/C=C/C=C/C=C\CCCCCCCC(=O)O [OVA-CLN, Conjugated linolenic acid]",Airway hyperresponsiveness (Penh) vs OVA-oil group,OVA-sensitized mice [1],alleviation of AHR
same,Initial Body weight,"[5]; 14 week-old, before experimental feeding, mean ± SD",22.7 ± 1.30 g
same,Final Body Weight,"[5]; 16 week-old, after 16 days feeding, mean ± SD",22.0 ± 1.52 g
same,Effect on mice growth (body weight),"[5]; 16 days feeding, in words",did not affect mice growth
same,Feed Intake,[5]; mean ± SD,2.99 ± 0.31 g/day
same,Eotaxin in BALF,OVA-sensitized mice [6],27.3 ± 8.5 pg/mL
same,IL-1β in BALF,OVA-sensitized mice [6],21.0 ± 9.5 pg/mL
same,IL-4 in BALF,OVA-sensitized mice [6],39.1 ± 33.9 pg/mL
same,IL-5 in BALF,OVA-sensitized mice [6],326 ± 183 pg/mL
same,IL-6 in BALF,OVA-sensitized mice [6],12.2 ± 27.8 pg/mL
same,IL-13 in BALF,OVA-sensitized mice [6],254 ± 75 pg/mL
same,PGE2 in BALF,OVA-sensitized mice [6],17.2 ± 16.1 ng/mL
same,TNF-α in BALF,OVA-sensitized mice [6],64.5 ± 29.3 pg/mL
same,Heart absolute weight,[3]; [7],0.12 ± 0.02 g
same,Heart relative weight,[3]; [7],0.56 ± 0.06%
same,Kidney absolute weight,[3]; [7],0.29 ± 0.01 g
same,Kidney relative weight,[3]; [7],1.30 ± 0.05%
same,Liver absolute weight,[3]; [7],1.28 ± 0.15 g
same,Liver relative weight,[3]; [7],5.80 ± 0.38%
same,Lung absolute weight,[3]; [7],0.48 ± 0.08 g
same,Lung relative weight,[3]; [7],2.21 ± 0.46%
same,Spleen absolute weight,[3]; [7],0.080 ± 0.026 g
same,Spleen relative weight,[3]; [7],0.37 ± 0.12%
same,Eosinophils in BALF vs OVA-oil group,OVA-sensitized mice [4],less eosinophils infiltration

# — patent publication US20130005812A1, “METHOD FOR ALLEVIATING ALLERGIC ASTHMA AND ALLERGIC RESPONSE BY USING BITTER MELON COMPOSITION” (NATIONAL TAIWAN UNIVERSITY, priority 2011, published 2013)
